Columns and labels:
[1] = test system: YAC128 mice; assay: DARPP-32 protein level in YAC128 striatal extracts; format: in vivo, mouse; settings: 3 mg/kg/day, n=6
Description: (§1) YAC128 mice (Tg) and their age-matched wt littermates were implanted with an osmotic pump containing TAT control peptide or HV-3 peptide (3 mg/kg/day, each) starting from the age of 3 months. The pump was replaced once every month. By the age of 12 months, the treatments were terminated and the mouse samples were harvested for analysis.
Protein concentrations were determined by Bradford assay. Protein was resuspended in Laemmli buffer, loaded on SDS–PAGE, and transferred onto nitrocellulose membranes. Membranes were probed with the indicated antibodies, followed by visualization with ECL. Representative blots have been cropped for presentation. Images of full-size blots are presented in Supplementary Fig. 9.

[2] = test system: HD mouse striatal cells; assay: ER stress response (GRP78 western blot); format: cell-based; settings: thapsigargin 1 μM or tunicamycin 10 μg/ml, 16 h, with HV-3 3 µM
Description: mouse striatal cells were treated with thapsigargin (1μM) or tunicamycin (10μ g/ml) for 16 hours i n the presence or absence of HV -3 (3 µM). GRP78 total protein levels were determined by western blot analysis. Representative blots of three independent experiments are shown. Actin was used here as a loading control. (b) Tw e n t y -four hours of serum starvation was performed in HD mouse striatal cells.
Caspase-3 activity analysis was performed in the indicated groups. Data are mean ± SEM of three independent experiments. (c) Flag-VCP and GFP-LC3B were co-transfected into HdhQ7 striatal cells.
Total lysates were isolated after 36 hours of transfection. The GFP -LC3B levels were examined by western blot analysis. Actin was used as a loading control. Histogram: quantitation of GFP-LC3B total protein level. Data are mean ± SEM of three independent experiments.
(1 picture or pasted object on this page, not shown here)

[3] = test system: YAC128 mice; assay: General motility, YAC128 (24 h locomotor activity); format: in vivo, mouse; settings: YAC128, 3 mg/kg/day from 3 months; from 6 to 12 months of age, n=15–20
Description: YAC128 (FVB-Tg(YAC128)53Hay/J, JAX stock number: 004938) breeders (FVB/N genetic background) were purchased from Jackson Laboratories. The YAC128 mice contain a full-length human huntingtin gene modified with a 128 CAG repeat expansion in exon 1. The mice were mated, bred and genotyped in the animal facility of Case Western Reserve University. Male mice at the ages of 2, 3, 6, 9 and 12 months were used in the study.
as §1
Gross locomotor activity was assessed in R6/2 mice and age-matched wt littermates at the ages of 13 weeks and in YAC128 mice and age-matched wt littermates at the ages of 2, 3, 6, 9, and 12 months. In an activity chamber (Omnitech Electronics, Inc), mice were placed in the center of the chamber and allowed to explore while being tracked by an automated beam system (Vertax, Omnitech Electronics Inc). Distance moved, horizontal, vertical, and rearing activities were recorded. Because R6/2 mice were sensitive to changes in environment and handling, we only conducted one-hour locomotor activity analysis for R6/2 mice and wt littermates. […]

[4] = test system: YAC128 mice; assay: Stereology of NeuN-positive striatal neurons; format: in vivo, mouse; settings: YAC128, 12 months of age, 3 mg/kg/day, n=6
Description: as §1
To measure the number of NeuN-positive cells, a series of 25 μm thick coronal sections spaced 200 μm apart spanning the striatum were stained with NeuN antibody (Millipore, 1:500) and visualized by diaminobenzidine. For neuropathological analyses, brain sections were analysed stereologically. Briefly, unbiased stereological counts of NeuN-positive neurons within the striatum were performed using unbiased stereological principles and analysed with StereoInvestigator software (Microbrightfield, Williston, VT). Optical fractionator sampling was carried out on a Leica DM5000B microscope (Leica Microsystems, Bannockburn, IL) equipped with a motorized stage and Lucivid attachment ( × 40 objective). The following parameters were used in the final study: grid size, (X) 500 μm, (Y) 500 μm; Counting frame, (X) 68.2 μm, (Y) 75 μm, depth was 20 μm. […] The total volume of stratial tissue measured in each brain is calculated by StereoInvestigator and the neuronal density is presented as NeuN positive cell number per mm^3.

[5] = test system: R6/2 mice; assay: PGC1-alpha protein level in mouse brain; format: in vivo; settings: R6/2 mouse brains (peer review file)
Description: Comment 2: Also how do the authors fit this in with the well-established defects in PGC1-alpha in HD. Do you have to have both?
Response: We thank the reviewer for these insightful comments. Following […]
mouse brains of R6/2 mice treated with either HV-3 or control peptide TAT.
Consistent with previous studies, we observed that PGC1-alpha was decreased in HD R6/2 mouse brains. To our surprise, treatment with HV-3 can partially […]
on the right). It is possible that this increase in PGC1-alpha level is an indirect effect of improvement of mitochondrial mass and quality by the HV-3 treatment.
Recent studies have shown that PGC1-alpha regulates mitophagy and autophagy via TFEB (Tsunemi T et al., Sci Trans Med, 2014; Siddiqui A et al., J Neurosci, 2015). Thus, our result may raise another possibility that there is a correlation between PGC1alpha and VCP-mediated mitophagy in HD. However, the mechanism remains to be determined, and it is beyond the scope of this manuscript. In response to the reviewer’s comment, we now add the following sentences in the discussion in the revised manuscript.
“In addition, PGC1α, a key regulator of mitochondrial biogenesis implicated in HD pathogenesis, has recently been reported to regulate mitophagy and autophagy through TFEB signaling 65, 66. […]

SMILES: CSCC[C@H](NC(=O)[C@@H](NC(=O)[C@H](CC(C)C)NC(=O)[C@@H](NC(=O)[C@H](Cc1c[nH]cn1)NC(=O)CCCCCNC(=O)[C@H](CCCNC(=N)N)NC(=O)[C@H](CCCNC(=N)N)NC(=O)[C@H](CCCNC(=N)N)NC(=O)[C@H](CCC(N)=O)NC(=O)[C@H](CCCNC(=N)N)NC(=O)[C@H](CCCNC(=N)N)NC(=O)[C@H](CCCCN)NC(=O)[C@H](CCCCN)NC(=O)[C@H](CCCNC(=N)N)NC(=O)CNC(=O)[C@@H](N)Cc1ccc(O)cc1)C(C)C)C(C)C)C(=O)N[C@@H](CS)C(=O)N[C@@H](C)C(=O)N[C@H](C(N)=O)[C@@H](C)O [HV-3]
- DARPP-32 protein level [1]: significantly increased DARPP-32 levels in the two mouse models
- ER stress response (GRP78) [2]: no effect on the ER stress response
- general movement activity [3]: improved general movement activity
- NeuN-positive neurons in dorsolateral striatum [4]: significantly increased the number of neurons positive for anti-NeuN immunostaining
- PGC1-alpha protein level [5]: improve the protein level of PGC1-alpha in the R6/2 mouse brains
